Measured values published in PubChem BioAssay (NCI).
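Results reflect a 48-hour exposure of cells in 96-well plates to compound at five concentrations. TGI denotes the concentration required for complete inhibition of growth.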

What was measured:
Experiment in all cases: DTP human tumour cell line panel, 48 h
SF-295 CNS = test system: SF-295 CNS
HCT-116 colon = test system: HCT-116 colon
OVCAR-8 ovarian = test system: OVCAR-8 ovarian
CAKI-1 renal = test system: CAKI-1 renal
SN12C renal = test system: SN12C renal
SK-MEL-28 melanoma = test system: SK-MEL-28 melanoma
NCI-H460 lung = test system: NCI-H460 lung
OVCAR-3 ovarian = test system: OVCAR-3 ovarian
RPMI-8226 leukemia = test system: RPMI-8226 leukemia
MALME-3M melanoma = test system: MALME-3M melanoma
DLD-1 colon = test system: DLD-1 colon
OVCAR-5 ovarian = test system: OVCAR-5 ovarian
RXF 393 renal = test system: RXF 393 renal
M14 melanoma = test system: M14 melanoma
KM20L2 colon = test system: KM20L2 colon
NCI-H522 lung = test system: NCI-H522 lung
786-0 renal = test system: 786-0 renal
SNB-19 CNS = test system: SNB-19 CNS
HOP-18 NSCLC = test system: HOP-18 NSCLC
XF 498 CNS = test system: XF 498 CNS
OVCAR-4 ovarian = test system: OVCAR-4 ovarian
SF-539 CNS = test system: SF-539 CNS
SR leukemia = test system: SR leukemia
KM12 colon = test system: KM12 colon
SNB-75 CNS = test system: SNB-75 CNS
UO-31 renal = test system: UO-31 renal
SNB-78 CNS = test system: SNB-78 CNS
SW-620 colon = test system: SW-620 colon
HT29 colon = test system: HT29 colon
SK-OV-3 ovarian = test system: SK-OV-3 ovarian
SK-MEL-2 melanoma = test system: SK-MEL-2 melanoma
IGROV1 ovarian = test system: IGROV1 ovarian
UACC-257 melanoma = test system: UACC-257 melanoma
LXFL 529 NSCLC = test system: LXFL 529 NSCLC
NCI-H226 lung = test system: NCI-H226 lung
A549 NSCLC = test system: A549 NSCLC
RXF-631 renal = test system: RXF-631 renal
NCI-H23 lung = test system: NCI-H23 lung
ACHN renal = test system: ACHN renal
SK-MEL-5 melanoma = test system: SK-MEL-5 melanoma
U251 CNS = test system: U251 CNS
HCC-2998 colon = test system: HCC-2998 colon
UACC-62 melanoma = test system: UACC-62 melanoma
MOLT-4 leukemia = test system: MOLT-4 leukemia
HOP-92 NSCLC = test system: HOP-92 NSCLC
DMS 114 small cell lung = test system: DMS 114 small cell lung
K-562 leukemia = test system: K-562 leukemia
EKVX NSCLC = test system: EKVX NSCLC
TK-10 renal = test system: TK-10 renal
HCT-15 colon = test system: HCT-15 colon

Measured: TGI

CC(=O)OC1CCn2nnc(COC(=O)NC(C)C)c21 (stereo not given)
> 100 µM: all assays above
